Experimental data from patent publication US8227240B2, “Systems for screening pharmaceutical chemicals” (The Washington University, priority 2001, dated 2012).

How the values were obtained:
[1] = test system: chicken embryo fibroblasts (CEF's) tissue model; experiment: Ring system: isometric force and dynamic stiffness of fibroblast populated matrices (FPM); type: cell-based; settings: for contractile force produced in response to serum activation: cytochalasin D 2 μM
Procedure: Chicken embryo fibroblasts (CEF's) isolated from 11-day chicken embryos (Spafas Inc., Preston, Conn.) were maintained in Dulbecco's modified Eagle's medium (DMEM) supplemented with 10% fetal calf serum (FCS), penicillin at 50 units/ml, and streptomycin at 50 microgram/milliliter. The CEF's used to make tissue models were passaged once or twice from primary cultures. Monomeric collagen solubilized in 0.02 M acetic acid (Upstate Biotechnology Inc., Lake Placid, N.Y.) was neutralized at 4° C. with 0.1 N NaOH and mixed with concentrated DMEM stock to yield a final normal DMEM concentration. The fibroblasts suspended by trypsin (FIG. 1a) were mixed with the collagen solution (FIG. 1b), the cell suspension was poured into Teflon casting wells (FIG. 1c), and the wells were incubated at 37° C. with 5% CO2 (FIG. 1d). The collagen polymerized within 15-30 min and fibroblasts were captured within the hydrated collagen gel. The collagen gel formed a ring (3 mm thick, 3 cm diameter) between the inner wall of the cylindrical well and the central mandrel. While in culture the cells compressed this ring, reducing its volume about 10-fold (thickness 200-300 μm). The ring could then be removed from the mandrel (FIG. 1e and FIG. 1f) and mounted on the measuring instrument (FIG. 1g) as described below.
Mechanical measurements were carried out using a ring system. After two days of incubation (serum starvation for the final 12-16 hours), the mandrel was removed from the casting well and the tissue model-ring was removed gently from the mandrel. As shown in FIG. 1 the tissue model-ring was looped over the triangular hook connected to an isometric force transducer (Model 52-9545, Harvard Apparatus, South Natick, Mass.) by a fine, flexible gold chain. The ring was also looped over a horizontal bar connected to a sliding element moveable vertically and linearly by a stepper motor (P/N 1-19-3400 24V DC 1.8° step size, Haward Industry, St. Louis, Mo.) controlled by a micro-stepping driver (IM483 Intelligent Motion Systems) to measure stress and dynamic modulus of the sample. The micro-stepping driver was controlled by a personal computer with software which enabled the stepper motor to achieve smooth motion. An analog-to-digital signal converter (CIO-DAS1602/16, Computer Boards, Inc., Mansfield, Mass.) attached to the computer translated the voltage signal from the isometric force transducer to a digital signal for recording on a data recorder. The stepper motor controlled the stretching of the tissue. Force exerted by or on the tissue was transmitted to the force transducer by the gold chain.
The tissue sample was submerged in 50 ml Hepes-buffered DMEM (pH 7.4) in a thermo-regulated organ bath (Harvard Apparatus, South Natick, Mass.) maintained at 37° C. The two horizontal bars over which the ring was looped were initially set to hold the ring at its original contour length (corresponding to the circumference of the mandrel).
Typically, for stiffness measurements, the tissue model is subjected to a sequence of stretch cycles. In each cycle the tissue model is slowly stretched from 0 to 20% over 30 minutes and the tissue model is then returned at the same rate to its original length by actuation of the stepper motor. The resulting increase in contractile force during the first stretch is substantially larger than the contractile force in subsequent stretches (FIG. 2a). For each stretch after the first stretch there is a further small decrease in maximum contractile force, but the decrease becomes negligible after sufficient pre-stretching. The tissue models produced contractile force in response to the activation of fibroblasts by serum. This contractile force was abolished by disrupting the actin cytoskeleton with cytochalasin D (2 μM) (FIG. 2b).
The amplitude of the force response divided by the stretching amplitude corresponded to the dynamic stiffness of the sample subjected to a preselected sinusoidal length change. […]

ring tissue model = experiment: Contractile force developed by ring sample during tissue development (matrix remodeling and compression); type: cell-based; settings: Cytochalasin D 2 μM
Procedure: The contractile force developed by the ring sample during matrix remodeling and compression can be measured by connecting the ring to the force measuring apparatus as described above within about 1-2 hours after collagen gelation. The cells begin to exert a force on the matrix after this time. Then the increase of force during tissue development (remodeling and compression) is observed over time.
Maximum force is typically reached within 15 to 20 hours. This process was also disrupted by several inhibitors as illustrated in FIGS. 18(b)-(d).

C=C1[C@@H](C)[C@H]2[C@H](Cc3ccccc3)NC(=O)[C@]23[C@H](OC(C)=O)/C=C/[C@@](C)(O)C(=O)[C@@H](C)C/C=C/[C@H]3[C@@H]1O [CD, cytochalasin D]
concentration range over which tension and stiffness decrease [1]: almost three decades | lowest concentration at which force and dynamic stiffness were significantly diminished [1]: 2 nM | dynamic stiffness ([1]; CD 2 μM): nearly reached its minimum value | isometric force ([1]; CD 2 μM): reduced almost to zero | contractile force produced in response to serum activation ([1]; listed as Cytochalasin D): abolition of active contractility | contractile force produced in response to serum activation ([1]; listed as cytochalasin D): abolished | effect on viscosity of the tissues (phase angle δ) ([1]; data not shown): relatively minor effect | IC50 ([1]; two day-old tissue models, serum starved 16 hours, serial additions, read-out: concentration needed to reduce the force and dynamic stiffness by 50%): ~250 nM | development of force during ring tissue development (ring tissue model): completely abolished
